Among the data in ChEMBL document CHEMBL5729526, “Substituted imidazolidin-2-one derivatives as PRMT5 inhibitors” (2023) are IC50 values, retold here.

The target in this assay is Protein arginine N-methyltransferase 5 (Homo sapiens, UniProt O14744). The experiment in a line: TR-FRET Assay: Protein arginine methyltransferase 5 (PRMT5) is a type II arginine methyltransferase that catalyze mono- and symmetric […] on arginine residues of histone or non-histone proteins in presence of S-adenosylmethionine (AdoMet or SAM) a cofactor responsible for donating the methyl group. PRMT5 is reported to be overexpressed in several human cancers. To identify compounds that inhibit the PRMT5 and decrease its activity, a TR-FRET based assay has been established. Time-resolved fluorescence resonance energy transfer (TR-FRET) HTS assays are homogeneous proximity assays where the interaction of two dye-labeled binding partners is detected by the energy transfer between a donor and an acceptor dye, and the subsequent light emission by the acceptor dye. PRMT5 catalyzes Histone H4 peptide [1-16] which is biotin tagged to the Lysine amino acid at carboxyl end, in presence of S-adenosyl-1-methionine (SAM) to methylate the peptide. The antibody specific to mono methylated H4 peptide (H4R3) with Ig conjugate binds to the methylated peptide, indirectly binding to the Europium lanthanide. SureLight Allophycocyanin-Streptavidin binds to the biotin tag of the peptide, therefore accepting the energy transferred from the Europium lanthanide. This energy transfer between Europium to SureLight Allophycocyanin is a direct measure of the activity/inhibition of the PRMT5 enzyme. […]. (In general: Time-resolved FRET reads energy transfer from a long-lived donor to a nearby acceptor.)
Chain of Protein arginine N-methyltransferase 5 (O14744 whole entry): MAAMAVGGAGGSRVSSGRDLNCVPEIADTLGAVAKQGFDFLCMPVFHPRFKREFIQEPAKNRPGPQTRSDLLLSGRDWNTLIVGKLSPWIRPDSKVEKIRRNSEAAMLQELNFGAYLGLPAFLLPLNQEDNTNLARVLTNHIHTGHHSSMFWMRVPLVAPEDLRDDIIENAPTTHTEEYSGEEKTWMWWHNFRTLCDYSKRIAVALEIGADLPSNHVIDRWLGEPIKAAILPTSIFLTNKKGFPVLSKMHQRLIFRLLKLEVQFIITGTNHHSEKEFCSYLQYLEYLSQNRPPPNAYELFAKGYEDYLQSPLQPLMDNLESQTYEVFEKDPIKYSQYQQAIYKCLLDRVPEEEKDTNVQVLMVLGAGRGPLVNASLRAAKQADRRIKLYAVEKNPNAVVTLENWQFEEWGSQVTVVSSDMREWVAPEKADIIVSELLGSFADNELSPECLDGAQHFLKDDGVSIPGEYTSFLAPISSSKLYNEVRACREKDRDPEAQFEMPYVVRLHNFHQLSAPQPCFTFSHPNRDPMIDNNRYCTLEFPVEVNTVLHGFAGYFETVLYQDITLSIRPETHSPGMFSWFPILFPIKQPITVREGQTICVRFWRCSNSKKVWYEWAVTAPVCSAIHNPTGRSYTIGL

As a reminder, the IC50 is the concentration needed to halve the response being measured. For the compound `O=C1N(Cc2cnc(-c3cccnc3)cn2)CCN1C[C@H](O)CN1CCc2ccccc2C1`, the 50% inhibitory concentration (IC50) is 0.053 µM.
